Measurements taken from ChEMBL document CHEMBL4842379 (J Med Chem, 2021).
Activity calls are given as the source filed them. No cut-off for these calls is given here.

Columns and labels:
[1] = Reversal of resistance to paclitaxel-induced cytotoxicity in paclitaxel-resistant human SW-620/AD300 cells assessed as reduction in paclitaxel IC50 at 2 uM pre-incubated for 4 hrs followed by paclitaxel addition and measured after 72 hrs by MTT assay; format: functional, cell-based
[2] = biological target: Epidermal growth factor receptor (Homo sapiens, UniProt P00533, L858R); assay: Inhibition of EGFR L858R mutant (unknown origin)
Chain of Epidermal growth factor receptor (P00533 25-1210 L858R limits assumed): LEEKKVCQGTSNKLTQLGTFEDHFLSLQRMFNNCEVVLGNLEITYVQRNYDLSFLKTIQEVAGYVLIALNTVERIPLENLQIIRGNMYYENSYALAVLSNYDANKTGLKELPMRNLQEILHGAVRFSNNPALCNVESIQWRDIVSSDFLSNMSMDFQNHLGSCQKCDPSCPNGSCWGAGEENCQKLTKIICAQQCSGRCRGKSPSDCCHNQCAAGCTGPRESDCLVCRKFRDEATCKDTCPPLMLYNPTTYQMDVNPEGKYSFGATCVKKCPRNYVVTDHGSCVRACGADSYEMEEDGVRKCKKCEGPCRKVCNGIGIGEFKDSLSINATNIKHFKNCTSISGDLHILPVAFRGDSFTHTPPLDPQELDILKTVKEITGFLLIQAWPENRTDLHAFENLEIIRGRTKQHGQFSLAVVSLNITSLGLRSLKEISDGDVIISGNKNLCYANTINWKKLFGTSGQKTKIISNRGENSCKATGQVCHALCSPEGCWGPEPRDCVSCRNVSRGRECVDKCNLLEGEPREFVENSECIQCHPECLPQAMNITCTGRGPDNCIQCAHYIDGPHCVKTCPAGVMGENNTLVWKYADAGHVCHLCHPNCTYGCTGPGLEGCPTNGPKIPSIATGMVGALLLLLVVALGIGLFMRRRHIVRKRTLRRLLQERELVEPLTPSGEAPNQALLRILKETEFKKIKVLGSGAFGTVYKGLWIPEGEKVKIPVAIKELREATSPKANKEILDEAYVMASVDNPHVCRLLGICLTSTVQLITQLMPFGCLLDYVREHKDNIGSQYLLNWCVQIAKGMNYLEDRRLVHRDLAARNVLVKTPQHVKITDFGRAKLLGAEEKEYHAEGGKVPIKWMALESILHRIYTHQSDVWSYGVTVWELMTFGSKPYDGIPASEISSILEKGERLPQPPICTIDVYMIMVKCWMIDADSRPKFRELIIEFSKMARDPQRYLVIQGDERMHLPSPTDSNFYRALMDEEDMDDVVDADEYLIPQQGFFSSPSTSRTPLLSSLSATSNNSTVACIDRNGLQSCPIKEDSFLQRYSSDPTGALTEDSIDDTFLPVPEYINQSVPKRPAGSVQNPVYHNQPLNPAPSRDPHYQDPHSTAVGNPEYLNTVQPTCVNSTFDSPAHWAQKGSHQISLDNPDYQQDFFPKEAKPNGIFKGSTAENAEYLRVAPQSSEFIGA

[3] = Reversal of resistance to colchicine-induced cytotoxicity in human SW620/AD300 cells assessed as reduction in colchicine IC50 at 2 uM pre-incubated for 4 hrs followed by colchicine addition and measured after 72 hrs by MTT assay; format: functional, cell-based; conditions: SW-620
[4] = tested on: SW-620; assay: Effect on intracellular Rhodamine 123 accumulation in human SW620 cells at 0.5 to 2 uM incubated for 24 hrs by flow cytometry; format: functional, cell-based; conditions: dose 0.5-2 µM
[5] = biological target: T1, ATP-dependent translocase ABCB1 (Homo sapiens, UniProt P08183); assay: Inhibition of P-gp in paclitaxel-resistant human SW620/AD300 cells assessed as accumulation of paclitaxel incubated for 24 hrs by HPLC analysis; format: cell-based; conditions: sw-620, 24 h
T1 sequence (P08183 whole entry): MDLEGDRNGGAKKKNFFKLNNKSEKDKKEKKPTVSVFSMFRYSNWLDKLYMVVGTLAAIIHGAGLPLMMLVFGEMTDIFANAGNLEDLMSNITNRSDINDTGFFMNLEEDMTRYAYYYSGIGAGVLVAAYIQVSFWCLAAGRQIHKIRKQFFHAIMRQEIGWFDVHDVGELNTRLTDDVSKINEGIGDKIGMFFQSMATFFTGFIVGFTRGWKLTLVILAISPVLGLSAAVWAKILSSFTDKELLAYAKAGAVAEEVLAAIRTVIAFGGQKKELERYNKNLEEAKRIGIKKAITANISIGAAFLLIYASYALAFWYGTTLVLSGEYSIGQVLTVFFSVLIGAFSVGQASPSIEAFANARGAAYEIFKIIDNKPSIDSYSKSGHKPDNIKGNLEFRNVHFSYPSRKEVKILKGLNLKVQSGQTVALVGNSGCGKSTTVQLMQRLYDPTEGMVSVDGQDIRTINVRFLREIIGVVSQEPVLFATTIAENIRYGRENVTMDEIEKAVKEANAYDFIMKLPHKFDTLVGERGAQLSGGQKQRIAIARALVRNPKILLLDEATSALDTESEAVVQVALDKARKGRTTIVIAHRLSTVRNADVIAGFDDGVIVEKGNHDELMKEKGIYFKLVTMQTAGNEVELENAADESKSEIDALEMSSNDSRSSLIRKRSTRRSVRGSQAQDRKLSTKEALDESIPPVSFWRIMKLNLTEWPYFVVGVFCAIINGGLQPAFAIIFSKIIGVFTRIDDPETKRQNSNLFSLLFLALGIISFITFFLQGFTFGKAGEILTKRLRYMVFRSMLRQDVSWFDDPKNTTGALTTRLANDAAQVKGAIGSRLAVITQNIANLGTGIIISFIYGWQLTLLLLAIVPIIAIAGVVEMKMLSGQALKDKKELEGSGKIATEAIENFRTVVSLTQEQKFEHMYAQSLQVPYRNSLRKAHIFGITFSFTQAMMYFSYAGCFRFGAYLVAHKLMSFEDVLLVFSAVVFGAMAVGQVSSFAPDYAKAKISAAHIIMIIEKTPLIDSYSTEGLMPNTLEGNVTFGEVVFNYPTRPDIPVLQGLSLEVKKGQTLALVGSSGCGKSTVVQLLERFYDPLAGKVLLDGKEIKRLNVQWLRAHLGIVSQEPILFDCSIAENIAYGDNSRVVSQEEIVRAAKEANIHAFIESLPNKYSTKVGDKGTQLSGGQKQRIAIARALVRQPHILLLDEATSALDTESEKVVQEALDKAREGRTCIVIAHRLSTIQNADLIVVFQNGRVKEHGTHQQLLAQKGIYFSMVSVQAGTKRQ

[6] = Cytotoxicity against paclitaxel-resistant human SW620/AD300 cells measured after 72 hrs by MTT assay; format: functional, cell-based; conditions: SW-620, 72 h
[7] = tested on: HEK-293T; assay: Cytotoxicity against human HEK293T cells expressing ABCB1 (unknown origin) measured after 72 hrs by MTT assay; format: functional, cell-based
[8] = Reversal of resistance to paclitaxel-induced cytotoxicity in human SW620/AD300 cells assessed as reduction in paclitaxel IC50 at 0.5 uM pre-incubated for 4 hrs followed by paclitaxel addition and measured after 72 hrs by MTT assay; format: functional, cell-based; conditions: SW-620
[9] = Reversal of resistance to paclitaxel-induced cytotoxicity in human SW620/AD300 cells assessed as reduction in paclitaxel IC50 at 1 uM pre-incubated for 4 hrs followed by paclitaxel addition and measured after 72 hrs by MTT assay; format: functional, cell-based; conditions: SW-620
[10] = Reversal of resistance to colchicine-induced cytotoxicity in human SW620/AD300 cells assessed as reduction in colchicine IC50 at 0.5 uM pre-incubated for 4 hrs followed by colchicine addition and measured after 72 hrs by MTT assay; format: functional, cell-based; conditions: SW-620
[11] = Reversal of resistance to colchicine-induced cytotoxicity in human SW620/AD300 cells assessed as reduction in colchicine IC50 at 1 uM pre-incubated for 4 hrs followed by colchicine addition and measured after 72 hrs by MTT assay; format: functional, cell-based; conditions: SW-620
[12] = tested on: SW-620; assay: Reduction in P-gp expression in paclitaxel-resistant human SW620/AD300 cells measured after 72 hrs by Western blotting analysis; format: functional, cell-based
[13] = tested on: SW-620; assay: Effect on P-gp subcellular localization in paclitaxel-resistant human SW620/AD300 cells measured after 72 hrs by Hoechst 33258 staining based immunocytochemistry analysis; format: functional, cell-based
[14] = biological target: T1, ATP-dependent translocase ABCB1; assay: Inhibition of P-gp in paclitaxel-resistant human SW620/AD300 cells assessed as rescue of intracellular Rhodamine 123 accumulation incubated for 24 hrs by flow cytometry; format: cell-based; conditions: sw-620, 24 h, dose 0.5-2 µM
[15] = biological target: T1, ATP-dependent translocase ABCB1; assay: Stabilization of P-gp in paclitaxel-resistant human SW620/AD300 cells at higher temperature incubated for 30 mins by Western blot based cellular thermal shift assay; format: cell-based; conditions: sw-620, 0.5 h
[16] = biological target: T1, ATP-dependent translocase ABCB1; assay: Inhibition of recombinant human P-gp ATPase activity incubated for 60 mins by luminescence based Glo assay
[17] = biological target: Cytochrome P450 3A4 (Homo sapiens, UniProt P08684); assay: Inhibition of human recombinant CYP3A4 by fluorescence assay; format: ADME
Chain of Cytochrome P450 3A4 (P08684 whole entry): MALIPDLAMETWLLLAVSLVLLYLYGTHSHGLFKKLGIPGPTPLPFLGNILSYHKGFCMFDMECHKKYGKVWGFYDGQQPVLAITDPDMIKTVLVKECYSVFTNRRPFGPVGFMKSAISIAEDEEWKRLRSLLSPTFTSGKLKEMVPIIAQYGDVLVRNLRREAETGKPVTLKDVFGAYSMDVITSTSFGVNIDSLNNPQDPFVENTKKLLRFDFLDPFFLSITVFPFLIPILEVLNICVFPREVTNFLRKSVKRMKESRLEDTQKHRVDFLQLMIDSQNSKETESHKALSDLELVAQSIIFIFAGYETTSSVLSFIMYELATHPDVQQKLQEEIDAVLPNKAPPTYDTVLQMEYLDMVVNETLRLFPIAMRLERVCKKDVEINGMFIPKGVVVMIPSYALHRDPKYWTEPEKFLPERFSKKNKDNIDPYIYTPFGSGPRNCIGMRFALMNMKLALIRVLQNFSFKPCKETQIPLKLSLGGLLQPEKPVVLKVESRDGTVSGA

[18] = tested on: SW-620; assay: In vivo antitumor activity against paclitaxel-resistant human SW620/AD300 cells xenografted in mouse assessed as reduction in tumor volume at 20 mg/kg, po in presence of 5 mg/kg paclitaxel treated for 3 days measured for 19 days; format: functional, organism-based; conditions: time 19.0 day
[19] = Toxicity in mouse xenografted with paclitaxel-resistant human SW620/AD300 cells assessed as change in body weight at 20 mg/kg, po in presence of 5 mg/kg paclitaxel treated for 3 days measured for 19 days; format: organism-based; conditions: in vivo, 456 h, time 19 day
[20] = Toxicity in mouse xenografted with paclitaxel-resistant human SW620/AD300 cells assessed as change in body weight at 20 mg/kg, po measured for 19 days; format: organism-based; conditions: in vivo, 456 h, time 19 day

SMILES | Paclitaxel IC50 in presence of compound at 2 uM [1] [nM] | further results
CCCCn1cc(-c2ncnc3cc(OC)c(OCCCN4CCOCC4)cc23)c2ccccc21 | 400 | 
CCn1cc(-c2ncnc3cc(OC)c(OCCCN4CCOCC4)cc23)c2ccccc21 | 300 | 
COc1cc2ncnc(-c3cn(Cc4ccc(C#N)cc4)c4ccccc34)c2cc1OCCCN1CCOCC1 | 200 | 
COc1cc2ncnc(-c3c(-c4ccc(C(C)C)cc4)[nH]c4ccccc34)c2cc1OCCCN1CCOCC1 | 300 | 
COc1cc2ncnc(-c3c(-c4ccccc4)n(C)c4ccccc34)c2cc1OCCCN1CCOCC1 | 100 | 
COc1cc2ncnc(-c3c(-c4ccc(F)cc4)[nH]c4ccccc34)c2cc1OCCCN1CCOCC1 | 300 | 
CCn1c(-c2ccccc2)c(-c2ncnc3ccc(Br)cc23)c2ccccc21 | 2200 | 
COc1cc2ncnc(-c3c(-c4cccc(Cl)c4)[nH]c4ccccc34)c2cc1OCCCN1CCOCC1 | 200 | 
C=CCn1c(-c2ccccc2)c(-c2ncnc3cc(OC)c(OCCCN4CCOCC4)cc23)c2ccccc21 | 2300 | 
COc1cc2ncnc(-c3cn(Cc4ccccc4)c4cccc(OC)c34)c2cc1OCCCN1CCOCC1 | 1000 | 
COc1cc2ncnc(-c3c(-c4cccc(F)c4)[nH]c4ccccc34)c2cc1OCCCN1CCOCC1 | 800 | 
COc1cc2ncnc(-c3c(CCc4ccccc4)[nH]c4ccccc34)c2cc1OCCCN1CCOCC1 | 200 | 
CCn1c(-c2ccccc2)c(-c2ncnc3cc(OCCOC)c(OCCOC)cc23)c2ccccc21 | 800 | 
COc1ccc2c(-c3ncnc4cc(OC)c(OCCCN5CCOCC5)cc34)cn(Cc3ccccc3)c2c1 | 100 | 
COc1cc2ncnc(-c3c(-c4ccc5ccccc5c4)[nH]c4ccccc34)c2cc1OCCCN1CCOCC1 | 40 | 
COc1cc2ncnc(-c3c(Cc4ccccc4)[nH]c4ccccc34)c2cc1OCCCN1CCOCC1 | 2000 | 
COc1cc2ncnc(-c3c(-c4ccccc4)n(CCCc4ccccc4)c4ccccc34)c2cc1OCCCN1CCOCC1 | 6 | 
COc1cc2ncnc(-c3c(-c4ccc(C(F)(F)F)cc4)[nH]c4ccccc34)c2cc1OCCCN1CCOCC1 | 700 | 
COc1cc2ncnc(-c3cn(Cc4ccccc4)c4ccccc34)c2cc1OCCCN1CCOCC1 | 50 | 
COc1cc2ncnc(-c3c(-c4cccc(C)c4)[nH]c4ccccc34)c2cc1OCCCN1CCOCC1 | 400 | 
CCn1c(-c2ccccc2)c(-c2ncnc3cc(OC)c(OC)cc23)c2ccccc21 | 1600 | 
COc1cc2ncnc(-c3c(-c4cccc(Br)c4)[nH]c4ccccc34)c2cc1OCCCN1CCOCC1 | 3000 | 
COc1cc2ncnc(-c3c(-c4ccccc4)n(Cc4ccc(Cl)cc4)c4ccccc34)c2cc1OCCCN1CCOCC1 | 7 | 

SMILES | Paclitaxel IC50 in presence of compound at 2 uM [1] [nM] | further results
COc1cc2ncnc(-c3c(-c4ccccc4)[nH]c4ccccc34)c2cc1OCCCN1CCOCC1 | 800 | 
CCn1c(-c2ccccc2)c(-c2ncnc3ccccc23)c2ccccc21 | 2200 | 
CCn1c(-c2ccccc2)c(-c2ncnc3cc(OC)c(OCCCN4CCOCC4)cc23)c2ccccc21 | 700 | IC50 [2]: 1.3 nM
COc1ccc(CCN(C)CCCC(C#N)(c2ccc(OC)c(OC)c2)C(C)C)cc1OC (configuration not stated) |  | IC50 [3]: 20600 nM; Activity [4]: inactive; Activity [5]: Dose-Dependent Effect
CC(=O)O[C@H]1C(=O)[C@@]2(C)[C@H]([C@H](OC(=O)c3ccccc3)[C@]3(O)C[C@H](OC(=O)[C@H](O)[C@@H](NC(=O)c4ccccc4)c4ccccc4)C(C)=C1C3(C)C)[C@]1(OC(C)=O)CO[C@@H]1C[C@@H]2O [PACLITAXEL] |  | IC50 [6]: 2300 nM; IC50 [7]: 36400 nM
COc1cc2ncnc(-c3cn(Cc4cccc(C)c4)c4ccccc34)c2cc1OCCCN1CCOCC1 | 30 | 
COc1cc2ncnc(-c3c(-c4ccccc4)n(Cc4cccc(Cl)c4)c4ccccc34)c2cc1OCCCN1CCOCC1 | 20 | 
COc1cc2ncnc(-c3cn(Cc4ccccc4Cl)c4ccccc34)c2cc1OCCCN1CCOCC1 | 20 | 
COc1cc2ncnc(-c3c(-c4cccc([N+](=O)[O-])c4)[nH]c4ccccc34)c2cc1OCCCN1CCOCC1 | 600 | 
CCc1ccc(-c2[nH]c3ccccc3c2-c2ncnc3cc(OC)c(OCCCN4CCOCC4)cc23)cc1 | 70 | 
COc1cc2c(c(OC)c1OC)-c1ccc(OC)c(=O)cc1[C@@H](NC(C)=O)CC2 [COLCHICINE] |  | IC50 [6]: 62500 nM; IC50 [7]: 801000 nM
C#CCn1c(-c2ccccc2)c(-c2ncnc3cc(OC)c(OCCCN4CCOCC4)cc23)c2ccccc21 | 2200 | 
COc1cc2ncnc(-c3c(-c4ccccc4F)[nH]c4ccccc34)c2cc1OCCCN1CCOCC1 | 500 | 
COc1cc2ncnc(-c3c(-c4ccc(Cl)cc4)[nH]c4ccccc34)c2cc1OCCCN1CCOCC1 | 20 | 
COc1cc2ncnc(-c3c(-c4ccccc4)n(Cc4ccccc4Br)c4ccccc34)c2cc1OCCCN1CCOCC1 |  | IC50 [8]: 100 nM; IC50 [9]: 20 nM; IC50 [10]: 26500 nM; IC50 [11]: 17200 nM; IC50 [3]: 6200 nM; Activity [12]: inactive; Activity [13]: inactive; Activity [14]: Dose-Dependent Effect; Activity [4]: inactive; Activity [5]: Dose-Dependent Effect; Activity [15]: Dose-Dependent Effect; IC50 [16]: 5100 nM; Activity ([16]; human, 1 h, time 60 min): Dose-Dependent Effect; IC50 [17]: 4100 nM; Activity [18]: Active; Activity [19]: Non-Toxic; Activity [20]: Non-Toxic
COc1cc2ncnc(-c3c(-c4ccc(Br)cc4)[nH]c4ccccc34)c2cc1OCCCN1CCOCC1 | 200 | 
COc1cc2ncnc(-c3c(-c4ccc(-c5ccccc5)cc4)[nH]c4ccccc34)c2cc1OCCCN1CCOCC1 | 20 | 
COc1cc2ncnc(-c3c(-c4ccc(C)cc4)[nH]c4ccccc34)c2cc1OCCCN1CCOCC1 | 300 | 
COc1cc2ncnc(-c3c(-c4ccccc4)n(Cc4cccc(Br)c4)c4ccccc34)c2cc1OCCCN1CCOCC1 | 20 | 
CCCCc1ccc(-c2[nH]c3ccccc3c2-c2ncnc3cc(OC)c(OCCCN4CCOCC4)cc23)cc1 | 100 | 
COc1ccc2c(c1)c(-c1ncnc3cc(OC)c(OCCCN4CCOCC4)cc13)cn2Cc1ccccc1 | 200 | 
CCn1c(-c2ccccc2)c(-c2nc(-c3ccccc3)nc3ccccc23)c2ccccc21 | 1200 | 
COc1cc2ncnc(-c3c(-c4ccccc4)n(Cc4cccc(C(F)(F)F)c4)c4ccccc34)c2cc1OCCCN1CCOCC1 | 20 | 
